Laboratory results reported in patent US20050037033A1, “Microbicidal compositions and methods and use” (priority 2003, published 2005).

Experiments:
[1] = tested on: Prevotella melaninogenica; assay: Anaerobe inhibition assay; assay type: cell-based; conditions: 2 strains, read-out: Minimum Inhibitory Concentrations (MICs)
Prevotella intermedia = assay: Anaerobe inhibition assay; assay type: cell-based; conditions: 2 strains, read-out: Minimum Inhibitory Concentrations (MICs)
Enterococcus faecium = assay: Aerobe inhibition assay; assay type: cell-based; conditions: 1 strain, read-out: Minimum Inhibitory Concentrations (MICs)
Protocol: (§1) The aerobic organisms were suspended into saline to the turbidity of the 0.5 McFarland standard, diluted 1:10, pipetted into the wells of the Steers replicator head, and stamped onto the Mueller Hinton agar plates containing the serial dilutions of the antimicrobials.
(§2) The anaerobes were incubated in an anaerobic chamber at 37° C. for 2 days; aerobes were incubated in ambient air at 36° C. for 20h.

E. coli = assay: Aerobe inhibition assay; assay type: cell-based; conditions: 2 strains
Protocol: as §1, §2

Enterococcus faecalis = assay: Aerobe inhibition assay; assay type: cell-based; conditions: 1 strain, read-out: Minimum Inhibitory Concentrations (MICs)
Protocol: as §1, §2

Strep pyogenes = assay: Aerobe inhibition assay; assay type: cell-based; conditions: 2 strains, read-out: Minimum Inhibitory Concentrations (MICs)
Protocol: as §1, §2

Strep agalactiae = assay: Aerobe inhibition assay; assay type: cell-based; conditions: 2 strains
Protocol: as §1, §2

Listeria monocytogenes = assay: Aerobe inhibition assay; assay type: cell-based; conditions: 2 strains, read-out: Minimum Inhibitory Concentrations (MICs)
Protocol: as §1, §2

Pseudo aerug = assay: Aerobe inhibition assay; assay type: cell-based; conditions: 1 strain, read-out: Minimum Inhibitory Concentrations (MICs)
Protocol: as §1, §2

Pseudo fluorescens = assay: Aerobe inhibition assay; assay type: cell-based; conditions: 1 strain, read-out: Minimum Inhibitory Concentrations (MICs)
Protocol: as §1, §2

C. albicans = assay: Aerobe inhibition assay; assay type: cell-based; conditions: Candida albicans; 2 strains; read-out: Minimum Inhibitory Concentrations (MICs)
Protocol: as §1, §2

K1 pneumoniae = assay: Aerobe inhibition assay; assay type: cell-based; conditions: 2 strains
Protocol: as §1, §2

Prevotella bivia = assay: Anaerobe inhibition assay; assay type: cell-based; conditions: 2 strains, read-out: Minimum Inhibitory Concentrations (MICs)
[2] = tested on: Peptostrep asaccharolyticus; assay: Anaerobe inhibition assay; assay type: cell-based; conditions: 2 strains
Cytotoxicity assay = assay type: cell-based; conditions: human, HeLa cells
Protocol: The cells listed in Table 4 were incubated for the indicated period of time with different concentrations of ciclopiroxolamine and cell viability was measured by the 3-(4,5-dimethylthiazol-2-yl)-2,5-diphenyltetrazolium bromide (MTT) assay or by treatment with propidium iodide and fluorescence. Percent viability was calculated with respect to the viability of mock-exposed cells (cells incubated without compounds).
In the MTT assay, the effect of each agent on cell viability was determined using an assay in which dehydrogenases in viable cells cleave the compound 3-(4,5-dimethylthiazol-2-yl)-2,5-diphenyltetrazolium bromide (MTT), yielding a purple product (formazan) which can be measured spectrophotometrically (Pauwels et al., 1988). Cells were seeded into 96 well plates at a density of 3×10^4 cells/well 24 hours prior to introduction of the microbicides. Agents were diluted in as previously indicated. Agents were added to triplicate wells in half-log serial dilutions. […] At the conclusion of each experiment, cells were washed, replenished with fresh medium and incubated with MTT (250 μl/well) for 2 hours at 37° C. […] In this assay, measured absorbance is proportional to the viable cell number, and inversely proportional to the degree of cytotoxicity.

[3] = tested on: Bacteroides thetaiotaomicron; assay: Anaerobe inhibition assay; assay type: cell-based; conditions: 1 strain, read-out: Minimum Inhibitory Concentrations (MICs)
Protocol: (§3) Working in an anaerobic chamber, the anaerobes were suspended into brucella broth to the turbidity of the 0.5 McFarland standard and pipetted into the wells of the Steers replicator head, removed from the chamber and stamped onto the supplemented Brucella agar plates containing the serial dilutions of the antimicrobials and the growth control plates. The final inoculum was 10^5 cfu/spot.
as §2

Gardnerella vaginalis = assay: Anaerobe inhibition assay; assay type: cell-based; conditions: 2 strains, read-out: Minimum Inhibitory Concentrations (MICs)
HIV-IRF [4] = assay: PC assay (cells pre-treated with compound, washed, then virus); assay type: cell-based; conditions: Human immunodeficiency virus 1, PM1, read-out: 50% Effective Concentrations (IC50)
Protocol: PC assay: Indicator T cells (PM-1; 10^5/well) were pre-treated with compound for 1 hour at 37° C., compound was removed by washing with 4 volumes of PBS, treated cells were added to immobilized virus (HIV-IRF; 10^3 TCID50) and incubated for 8 days.
(§4) In each of the assays above, viral replication was monitored after 8 days by measuring reverse transcriptase activity.

Eubact lentum = assay: Anaerobe inhibition assay; assay type: cell-based; conditions: 2 strains, read-out: Minimum Inhibitory Concentrations (MICs)
HSV-2 = HSV-2 viral binding inhibition assay; assay type: cell-based; conditions: Human alphaherpesvirus 2; Vero cells, plaque assay
Protocol: Confluent Vero cells were incubated with different concentrations of ciclopiroxolamine at 37° C. for 1 hour. 200 pfu of HSV-2 were then added to the cells in the presence of test compound and the cells were incubated at 37° C. for 1 hour. The infected cells were washed with PBS and overlaid with methylcellulose (no drug) for a plaque assay.

HIV-IRF [5] = assay: PV-L assay (virus mixed with compound, then cells, no washing); assay type: cell-based; conditions: Human immunodeficiency virus 1, PM1, Series 1, PV-L: HIV-IRF mixed with compound 1 hour, then PM-1 cells, 8 days, reverse transcriptase activity, read-out: 50% Effective Concentrations (IC50)
Protocol: PV-L assay: Immobilized virus (HIV-IRF; 10^3 TCID50) was mixed with compound for 1 hour at 37° C. before addition of indicator T cells (PM-1; 10^5/well) and incubated for 8 days (no washing).
as §4

Clost perfringes = assay: Anaerobe inhibition assay; assay type: cell-based, Clostridium perfringes; conditions: Clostridium, 2 strains, read-out: Minimum Inhibitory Concentrations (MICs)
Protocol: as §3, §2

Fuso. nucleatum = assay: Anaerobe inhibition assay; assay type: cell-based; conditions: Fusobacterium nucleatum, 2 strains, read-out: Minimum Inhibitory Concentrations (MICs)
Bacteroides fragilis = assay: Anaerobe inhibition assay; assay type: cell-based; conditions: 1 strain, read-out: Minimum Inhibitory Concentrations (MICs)
[6] = read-out: Minimum Inhibitory Concentrations (MICs)

`Cc1cc(C2CCCCC2)n(O)c(=O)c1.NCCO` [CO, 6-Cyclohexyl-1-hydroxy-4-methyl-2-(1H)-pyridone ethanolamine salt] showed an MIC [1] of 40 mg/L, an MIC (Prevotella intermedia) of 40 mg/L and an MIC (Enterococcus faecium) of 40 mg/L. For the same molecule, the “Minimum Inhibitory Concentrations (MICs)” value (E. coli) was 80 µg/mL, the MIC (E. coli; Escherichia coli, read-out: Minimum Inhibitory Concentrations (MICs)) was 40 mg/L and the MIC (Enterococcus faecalis) was 80 mg/L. The MIC (Strep pyogenes) was 80 mg/L, the “Minimum Inhibitory Concentrations (MICs)” value (Strep agalactiae) was 160 µg/mL and the MIC (Strep agalactiae; [6]) was 80 mg/L. The MIC (Listeria monocytogenes) was 40 mg/L, the MIC (Pseudo aerug) was 80 mg/L and the MIC (Pseudo fluorescens) was 160 mg/L. For the same molecule, the MIC (C. albicans) was 20 mg/L, the “Minimum Inhibitory Concentrations (MICs)” value (K1 pneumoniae) was 80 µg/mL and the MIC (K1 pneumoniae; [6]) was 40 mg/L. For the same molecule, the MIC (Prevotella bivia) was 40 mg/L, the “Minimum Inhibitory Concentrations (MICs)” value [2] was 80 µg/mL and the MIC [2, 6] was 40 mg/L. It also gave a CC50 at 1 h (Cytotoxicity assay; Series 1, Original material, 1 hour incubation, 100 μg/ml highest conc tested) greater than 100 mg/L, a CC50 at 1 h (Cytotoxicity assay; Series 3, 1 hour incubation) of 859 mg/L and an MIC [3] of 40 mg/L. For the same molecule, the MIC (Gardnerella vaginalis) was 80 mg/L, the IC50 (HIV-IRF [4]) was 0.96 mg/L and the MIC (Eubact lentum) was 40 mg/L. For the same molecule, the IC50 (HSV-2) was 153 mg/L, the IC50 (HIV-IRF [5]) was 1.46 mg/L and the MIC (Clost perfringes) was 40 mg/L. For the same molecule, the MIC (Fuso. nucleatum) was 40 mg/L and the MIC (Bacteroides fragilis) was 40 mg/L.
